Literature values, collected in US20160279057A1, “Azelastine Formulations For Intranasal Nebulization And Irrigation” (CMPD LICENSING, LLC, priority 2015, published 2016).
Where a name gives a salt, the structure may show the parent alone.

## CN1CCCC(n2nc(Cc3ccc(Cl)cc3)c3ccccc3c2=O)CC1 (stereo not drawn) [Azelastine hydrochloride, azelastine hydrochloride]
ethanol
  solubility in ethanol: slightly soluble
glycerin
  solubility in glycerin: slightly soluble
methanol
  solubility in methanol: sparingly soluble
octanol
  solubility in octanol: slightly soluble
Propylene glycol
  solubility in propylene glycol: sparingly soluble
water
  solubility in water: sparingly soluble
